Laboratory results published in ChEMBL document CHEMBL1955731, “Design and synthesis of novel bone-targeting dual-action pro-drugs for the treatment and reversal of osteoporosis” (Bioorg Med Chem, 2012).
One block for each compound: values may come before it.

What was measured:
Bone [1] = experiment: Binding affinity to rat bone at 0.1 mg/ml after 10 mins; format: ADME, tissue-based, Bone element
Plasma [2] = experiment: Prodrug conversion in rat plasma assessed as compound conversion to 7-((R)-2-((R,E)-4,4-difluoro-3-hydroxy-4-phenylbut-1-enyl)-5-oxopyrrolidin-1-yl)heptanoic acid at 100 ug/ml after 30 mins by HPLC analysis; format: ADME, cell-free; conditions: 0.5 h
Plasma [3] = experiment: Prodrug conversion in rat plasma assessed as compound conversion to 7-((R)-2-((R,E)-4,4-difluoro-3-hydroxy-4-phenylbut-1-enyl)-5-oxopyrrolidin-1-yl)heptanoic acid at 100 ug/ml for 96 hrs by HPLC-MS-MS analysis; format: ADME, cell-free
Bone [4] = experiment: Drug uptake in rat bone after 5 mins; format: ADME, tissue-based, Bone element; conditions: in vivo
Bone [5] = experiment: Drug uptake in Sprague-Dawley rat bone at 5 mg/kg, iv after 24 hrs; format: ADME, organism-based, Bone element; set-up: dose 5 mg/kg, route intravenous; conditions: in vivo
[6] = Elimination half life in Sprague-Dawley rat at 5 mg/kg, iv; format: ADME, organism-based; set-up: dose 5 mg/kg, route intravenous; conditions: in vivo, read-out: beta t1/2
[7] = Drug excretion in Sprague-Dawley rat urine at 5 mg/kg, iv after 24 hrs; format: ADME, organism-based; set-up: dose 5 mg/kg, route intravenous; conditions: in vivo
Bone [8] = experiment: Drug uptake in Sprague-Dawley rat bone at 5 mg/kg, iv after 7 days; format: ADME, organism-based, Bone element; set-up: dose 5 mg/kg, route intravenous; conditions: in vivo, 168 h
Rattus norvegicus = experiment: Toxicity in Sprague-Dawley rat at 5 mg/kg, iv; format: organism-based; set-up: dose 5 mg/kg, route intravenous; conditions: in vivo
Bone [9] = experiment: Drug uptake in Sprague-Dawley rat bone at 5 mg/kg, iv after 28 days; format: ADME, organism-based, Bone element; set-up: dose 5 mg/kg, route intravenous; conditions: in vivo, 672 h
Bone [10] = experiment: Drug uptake in Sprague-Dawley rat bone at 5 mg/kg, iv after 14 days; format: ADME, organism-based, Bone element; set-up: dose 5 mg/kg, route intravenous; conditions: in vivo, 336 h
[11] = Drug excretion in Sprague-Dawley rat feces at 5 mg/kg, iv after 24 hrs; format: ADME, organism-based; set-up: dose 5 mg/kg, route intravenous; conditions: in vivo
[12] = Elimination half life in Sprague-Dawley rat at 10 mg/kg, iv; format: ADME, organism-based; set-up: dose 10 mg/kg, route intravenous; conditions: in vivo, read-out: beta t1/2
Bone [13] = experiment: Drug uptake in Sprague-Dawley rat bone at 10 mg/kg, iv after 2 days; format: ADME, organism-based, Bone element; set-up: dose 10 mg/kg, route intravenous; conditions: in vivo, 48 h
Bone [14] = experiment: Drug uptake in Sprague-Dawley rat bone at 10 mg/kg, iv after 6 hrs; format: ADME, organism-based, Bone element; set-up: dose 10 mg/kg, route intravenous; conditions: in vivo
Bone [15] = experiment: Drug uptake in Sprague-Dawley rat bone at 10 mg/kg, iv after 7 days; format: ADME, organism-based, Bone element; set-up: dose 10 mg/kg, route intravenous; conditions: in vivo, 168 h
Bone [16] = experiment: Drug uptake in Sprague-Dawley rat bone at 10 mg/kg, iv after 14 days; format: ADME, organism-based, Bone element; set-up: dose 10 mg/kg, route intravenous; conditions: in vivo, 336 h

- Activity (Bone [1]): Not Active
Compound: O=C(O)CCCCCCN1C(=O)CC[C@@H]1/C=C/[C@@H](O)C(F)(F)c1ccccc1

- Drug metabolism (Plasma [2]): Active
- Activity (Bone [1]): Not Active
Compound: CCOC(=O)CCCCCCN1C(=O)CC[C@@H]1/C=C/[C@@H](O)C(F)(F)c1ccccc1

- Drug metabolism (Plasma [3]): Not Active
Compound: CCOC(=O)CCCCCCN1C(=O)CC[C@@H]1/C=C/[C@@H](OC(=O)NCCCC(O)(P(=O)(O)O)P(=O)(O)O)C(F)(F)c1ccccc1

Second part, the compound before the results:

Compound: O=C1CC[C@H](/C=C/[C@@H](O)C(F)(F)c2ccccc2)N1CCCCCCc1nnn[nH]1
- Activity (Bone [1]): Not Active

Compound: [3H]C([3H])([3H])COC(=O)CCCCCCN1C(=O)CC[C@@H]1/C=C/[C@@H](OC(=O)NCCCC(O)(P(=O)(O)O)P(=O)(O)O)C(F)(F)c1ccccc1
- Drug uptake (Bone [4]): 96%
- Drug uptake (Bone [5]): 9.4%
- half-life [6]: < 15 min
- Drug excretion [7]: Not Active
- Drug uptake (Bone [8]): 8%
- Activity (Rattus norvegicus): Non-toxic
- Activity (Bone [1]): 90%
- Drug uptake (Bone [9]): 5.6%
- Drug uptake (Bone [10]): 6.2%
- Drug excretion [11]: Active

Compound: CCN(CC)CC.[3H]C([3H])([3H])COC(=O)CCCCCCN1C(=O)CC[C@@H]1/C=C/[C@@H](OC(=O)Cc1ccc(OC(=O)NCCCC(O)(P(=O)(O)O)P(=O)(O)O)cc1)C(F)(F)c1ccccc1
- half-life [12]: < 30 min
- Drug uptake (Bone [13]): 4.9%
- Drug uptake (Bone [14]): 5.9%
- Drug uptake (Bone [15]): 2.2%
- Drug uptake (Bone [16]): 1.4%
